Assays:
[1] = tested on: SERCA2a; assay: SERCA2a SUMOylation assay in HEK-293 cells (immunoprecipitation/immunoblotting); format: cell-based
Source text: The following antibodies were used for immunoblotting and immunoprecipitation (IP): polyclonal anti-SERCA2a (21th century Biochem Inc.), monoclonal anti-GAPDH (Sigma-Aldrich, catalog no. G8795), monoclonal anti-SUMO 1 (Cell Signaling Technology Inc., catalog no. 4930), anti-mouse horseradish peroxidase (HRP) (Pierce Biotechnology Inc., catalog no. 32430), and anti-rabbit HRP (Pierce Biotechnology Inc., catalog no. 32460). YFP-tagged SUMO1, pcDNA3.0-SERCA2a, and HA-tagged Ubc9 plasmids were used for the transfection. The plasmid DNA was amplified in the Escherichia coli strain DH5a and extracted by using a commercial purification kit (Qiagen, catalog no. 12263). Purified plasmid was resuspended in sterile TE buffer (10 mM Tris-HCl and 1 mM EDTA, pH 7.6). Only the preparation highest purity (A260/A280>1.8) was used for transfection. 1 μg of each plasmid was used for transfection. HEK-293 cells (American Type Culture Collection, catalog no. CRL-1873) were grown at 37° C. and under a 5% CO2 humidified atmosphere in Dulbecco's modified Eagle's medium (DMEM, Cellgro, catalog no. 10-0 13-CM) containing 10% fetal bovine serum (SAFC Bioscience, catalog no. 12107) and 100 i.u of penicillin/ml and 100 μg of streptomycin/ml. HEK-293 cells were seeded at a density of 3-5×10^5 cells per 60 mm culture dish in DMEM. The cells were transiently transfected using Lipofectamine 2000 (Invitrogen, catalog no. 11668) with indicated expression plasmids. After 24 hours, the cells were treated with either small molecules or dimethyl sulfoxide (DMSO, Sigma-Aldrich, catalog no. D2650).
Each compound was added at 10 μM. DMSO was used as a control. After 24 hours at 37° C., SERCA2a SUMOylation and functional analysis were determined.
Equal amounts of protein from either small molecule treated or DMSO treated cells or immunoprecipitates were resolved by 7.5% SDS-PAGE and transferred to nitrocellulose membranes (Bio-Rad, catalog no. 162-0112). The membranes were blocked for 1 hour at room temperature with 5% non-fat milk (Cell Signaling Technology Inc., catalog no. 9999) in TBST (10 mM Tris-HCl, 150 mM NaCl, and 0.05% tween-20, pH 8.0). The blots were incubated with specific primary antibodies at 4° C. for overnight. The blots were then washed five times for 10 minutes each with TBST and incubated for 1 hour with HRP-conjugated secondary antibodies in TBST with 5% non-fat milk. After five times TBST washes, the protein bands were visualized with enhanced chemiluminescence (Pierce Biotechnology Inc., catalog no. 32132) and exposed to x-ray film (Denville Scientific Inc., catalog no. E3012). GAPDH expression provided an internal control.
Post-transfection (48 hours), the HEK-293 cells were rinsed twice with phosphate-buffered saline (PBS, Cellgro, catalog no. 21-040-CM) and lysed in 1% Nonidet P-40 lysis buffer (Boston Bioproducts, catalog no. BP-119) with 10 mM N-ethylmaleimide (NEM, Sigma-Aldrich, catalog no. N3876) and […] inhibitor cocktail (Complete Mini Tablet, Roche Applied Science, catalog no. 11836153001). 2 mg of protein were mixed with the anti-SERCA2a antibodies for overnight at 4° C. in lysis buffer. Pre-washed protein A-Separose beads (Pierce Biotechnology Inc., catalog no. 20333) was added to each sample and incubated 1 hour at 4° C. with gentle rocking. Immunocomplexes were washed with lysis buffer three times and precipitated by centrifugation at 12000×g for 10 seconds. The immunocomplexes were resuspended in SDS sample buffer and subjected to immunoblotting. Controls for the immunoprecipitations were performed using an anti-rabbit IgG equal to that of the primary precipitating antibody. Ten percent of whole cell lysates used in the immunoprecipitation was loaded for subsequent immunoblotting.
The ability of the Example compound to SUMOylate SERCA2a was examined using an in vitro system in HEK 293 cells where both SERCA2a and SUMO 1 are expressed. […]

[2] = molecular target: T1, SUMO E1 enzyme (Homo sapiens, UniProt Q9UBT2); assay: ATP-dependent activation of SUMO-1 (ATP hydrolysis); format: biochemical
T1 sequence (Q9UBT2 1-640): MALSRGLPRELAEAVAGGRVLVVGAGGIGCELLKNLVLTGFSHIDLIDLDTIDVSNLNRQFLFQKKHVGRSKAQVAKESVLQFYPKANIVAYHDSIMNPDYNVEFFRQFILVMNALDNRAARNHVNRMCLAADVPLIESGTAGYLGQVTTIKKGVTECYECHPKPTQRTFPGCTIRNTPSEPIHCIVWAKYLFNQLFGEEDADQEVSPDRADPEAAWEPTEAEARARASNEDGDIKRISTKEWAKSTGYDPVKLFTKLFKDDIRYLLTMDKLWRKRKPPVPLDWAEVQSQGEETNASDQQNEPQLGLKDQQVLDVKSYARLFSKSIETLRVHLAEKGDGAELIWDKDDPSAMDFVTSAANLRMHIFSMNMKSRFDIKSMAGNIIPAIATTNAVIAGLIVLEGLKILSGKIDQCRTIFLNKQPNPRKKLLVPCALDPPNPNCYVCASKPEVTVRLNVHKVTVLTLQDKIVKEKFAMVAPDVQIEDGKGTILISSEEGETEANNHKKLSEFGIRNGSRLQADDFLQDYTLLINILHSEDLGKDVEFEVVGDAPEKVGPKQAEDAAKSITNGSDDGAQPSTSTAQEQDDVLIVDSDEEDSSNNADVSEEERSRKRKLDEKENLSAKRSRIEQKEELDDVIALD
T1 sequence (Q9UBE0 1-346): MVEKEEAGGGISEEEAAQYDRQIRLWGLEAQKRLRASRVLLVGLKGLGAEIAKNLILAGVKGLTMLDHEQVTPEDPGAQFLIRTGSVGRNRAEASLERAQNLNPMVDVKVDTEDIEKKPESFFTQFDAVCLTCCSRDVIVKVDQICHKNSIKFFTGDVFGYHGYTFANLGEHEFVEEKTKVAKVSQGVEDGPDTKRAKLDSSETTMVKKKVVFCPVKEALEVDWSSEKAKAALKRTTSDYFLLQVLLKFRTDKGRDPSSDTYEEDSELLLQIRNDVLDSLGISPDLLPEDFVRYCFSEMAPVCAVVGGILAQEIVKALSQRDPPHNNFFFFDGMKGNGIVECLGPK

[3] = tested on: Serca2 KO mice; assay: Hemodynamics in Serca2 knockout mice; format: in vivo, mouse; conditions: before vs after infusion
Source text: Adult mice with an inducible cardiomyocyte-specific excision of the Atp2a2 (Serca2) gene (Serca2 KO) were used. Four weeks after induction of Serca2 gene excision, the mice display a substantial reduction in systolic and diastolic function (FIG. 11a). […] The decay constant, tau value was nearly 1.3-fold (Serca2 KO, […]; WT, […], p<0.001) larger in Serca2 KO mice compared with WT control (FIG. 11b). The expression of SERCA2a was completely lacking in Serca2 KO mice (FIG. 11c).
Hemodynamic parameters obtained before and after infusion of Example 1 were compared. […] The dose-dependent enhancement of cardiac contractility disappeared in Serca2 KO mice (FIG. 6b).

EC50 [2]: 40.5 ± 4.4 µM
Compound: COc1ccc(-c2nnc(Nc3nc4c(OC)cccc4s3)o2)cc1 [Example 1, N-(4-methoxybenzo[d]thiazol-2-yl)-5-(4-methoxyphenyl)-1,3,4-oxadiazol-2-amine]
SERCA2a SUMOylation in HEK 293 cells [1]: increases SUMOylation of SERCA2a in a dose dependent manner | hemodynamic parameters in Serca2 KO mice [3]: did not induce any improvements
